Test results published in patent US11786494B2, “Methods of modulation of branched chain acids and uses thereof” (Baylor College of Medicine, priority 2009, dated 2023).

What was measured:
[1] = molecular target: branched-chain alpha-keto acid dehydrogenase kinase (BDK) (Homo sapiens, UniProt O14874); details: Harris et al., 1982; cited from earlier work
[2] = tested on: E1α-phospho/E1α, E2, BCATm, BCATc; experiment: Western blotting of BCKD complex and BCAT isozymes in lymphoblast cells; format: cell-based, human; details: for phosphorylation state of E1α: CIC 1 mM 2 h alone, or together with phenylbutyrate
BCKDC = molecular target: T1, BCKDC (Homo sapiens, UniProt P12694+P21953); experiment: Leucine oxidation in lymphoblast cells in presence of CIC; format: cell-based; set-up: Transformed lymphoblast cell lines were available from all 5 MSUD patients and from 2 controls to measure BCKDC activity; endogenous in cells; details: both control cells, CIC 1 mM
T1 sequence (P12694 46-445): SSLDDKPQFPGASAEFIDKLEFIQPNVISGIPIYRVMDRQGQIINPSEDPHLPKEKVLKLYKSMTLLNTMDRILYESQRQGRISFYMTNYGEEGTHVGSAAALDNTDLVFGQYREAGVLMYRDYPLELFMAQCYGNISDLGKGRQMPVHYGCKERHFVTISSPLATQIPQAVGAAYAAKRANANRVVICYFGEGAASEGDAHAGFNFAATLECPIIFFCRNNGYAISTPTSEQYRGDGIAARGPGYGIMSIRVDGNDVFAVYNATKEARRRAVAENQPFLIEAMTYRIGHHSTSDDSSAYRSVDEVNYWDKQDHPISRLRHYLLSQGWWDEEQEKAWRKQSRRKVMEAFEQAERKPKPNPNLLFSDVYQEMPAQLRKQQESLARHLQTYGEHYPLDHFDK
T1 sequence (P21953 51-392): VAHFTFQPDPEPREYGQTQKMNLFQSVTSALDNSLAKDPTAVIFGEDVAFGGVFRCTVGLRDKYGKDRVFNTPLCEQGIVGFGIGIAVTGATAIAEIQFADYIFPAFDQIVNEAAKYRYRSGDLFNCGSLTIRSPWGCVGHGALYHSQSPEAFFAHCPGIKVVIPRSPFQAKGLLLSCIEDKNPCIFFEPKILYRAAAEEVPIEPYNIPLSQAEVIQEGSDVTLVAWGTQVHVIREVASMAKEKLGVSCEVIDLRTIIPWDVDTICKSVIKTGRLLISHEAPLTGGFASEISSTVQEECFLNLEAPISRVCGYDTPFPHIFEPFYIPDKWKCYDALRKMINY
Procedure: FIGS. 8A-8C. FIGS. 8A and 8B show leucine oxidation in presence of CIC in lymphoblast cells from control subjects (C-660, C-661) and MSUD patients (P-1, -2, -3, -4, -5) untreated or treated with 1 mM phenylbutyrate for 48 h. Leucine oxidation was measured by using radioactive assay as described in Materials and Methods and is expressed in pmol CO2 released/min/mg protein. CIC was added to all reactions in 1 mM concentration. Values are means±SD (n=3), * p≥0.05, **p≥0.01. […] Images are representative of two independent experiments.
Because phenylbutyrate affects E1α phosphorylation state in vivo (see FIG. 5), leucine oxidation was measured in the same cell lines as in FIG. […] with CIC in the assay. […] Changes in BCAT isoenzyme activity also impacts BCKA production, in specific cases. All patient cell lines accumulated more KIC than observed in control cell lines.

[3] = cited from earlier work; for time to peak concentration: metabolites after a dose of 5 g of phenylbutyrate; for mean peak concentration: metabolites after oral dosing of phenylbutyrate; for elimination half-life: oral phenylbutyrate, estimated
[4] = substrate: O=C(O)CCCc1ccccc1; experiment: E1 catalyzed decarboxylase activity (DCPIP assay); format: biochemical; details: other: E1 catalyzed decarboxylase activity, [+] Phenylbutyrate
Procedure: (§1) To determine the effect of phenylbutyrate on individual BCAA catabolic enzymes, activities of mitochondrial branched chain amino transferase (BCATm) and BCKDC enzymes were measured with and without phenylbutyrate using purified recombinant enzymes. BCATm generates the BCKA products that are elevated in MSUD and are the substrates for BCKDC. BCATm activity was measured at pH 8.0 and 298 K as described in Example 2. Kinetics of the E1 decarboxylase reaction with and without phenylbutyrate were determined in the presence of an artificial electron acceptor 2, 6-dichlorophenolindophenol (DCPIP). The assay mixture contained 100 mM potassium phosphate, pH 7.5, 2.0 mM MgCl2, 0.2 mM thiamin diphosphate (ThDP) and 0.1 mM DCPIP. The rate of decarboxylation at 30° C. was measured by monitoring the reduction of the dye at 600 nm (24, 25). For the overall BCKDC activity assay, the enzymes were exchanged into phosphate buffer (30 mM potassium phosphate, pH 7.5) containing 5 mM DTT using a PD-10 column and the enzyme concentrations were calculated from the absorption maxima at 280 nm. The protein complex was reconstituted with E1, lipoylated E2 (lip-E2) and E3 at a molar ratio of 12:1:55, in which lip-E2 exists as a 24-mer. The assay mixture contained 30 mM potassium phosphate pH 7.5, 100 mM NaCl, 3 mM NAD^+, 0.4 mM CoA, 2 mM MgCl2, 2 mM DTT, 0.1% Triton X-100, and 2 mM ThDP. The overall reaction was monitored by formation of NADH at 340 nm. The apparent rate constants (kapp) at different substrate concentrations for all of the above assays were determined from the absorption changes at the individual wavelength maximum. The kapp rate constants were fit using the following equation: kapp=kcat[S]/(Km+[S])

[5] = substrate: O=C(O)CCCc1ccccc1; experiment: Overall BCKDC activity assay (reconstituted E1, lip-E2, E3; NADH formation); format: biochemical; details: other: Activity of BCKDC, [+] Phenylbutyrate
Procedure: as §1

[6] = substrate α-ketoisocaproate (KIC)
[7] = substrate α-ketoisovalerate (KIV)

In the case of `CC(C)CC(Cl)C(=O)O` (stereo not drawn) [CIC, Alpha-chloroisocaproate], the “inhibition of BDK” value [1] is listed as “known inhibitor”, the “phosphorylation state of E1α” value ([2]; both controls and patients 4 and 5) is listed as “decreases” and the “E2 or BCAT isozyme levels” value ([2]; lymphoblasts, CIC) is listed as “did not have any effect”. For the same molecule, the “phosphorylation state of E1α” value ([2]; patients 1, 2 and 3) was “no effect” and the “leucine oxidation activity in the presence of CIC vs alone” value (BCKDC) was “higher activity”.

For `O=C(O)Cc1ccccc1` [phenylacetate], the “time to peak concentration” value [3] is listed as “around 3.5 h”, the mean peak concentration [3] is listed as 45.3 µg/mL and the elimination half-life [3] is listed as 1.3 h.

For `NC(=O)CC[C@H](NC(=O)Cc1ccccc1)C(=O)O` [phenylacetateglutamine], the “time to peak concentration” value [3] is listed as “around 3.5 h”, the mean peak concentration [3] is listed as 62.8 µg/mL and the elimination half-life [3] is listed as 2.4 h.

B1: E1 (unphosphorylated) of BCKDC (Homo sapiens) (protein)
chain 1: SSLDDKPQFPGASAEFIDKLEFIQPNVISGIPIYRVMDRQGQIINPSEDPHLPKEKVLKLYKSMTLLNTMDRILYESQRQGRISFYMTNYGEEGTHVGSAAALDNTDLVFGQYREAGVLMYRDYPLELFMAQCYGNISDLGKGRQMPVHYGCKERHFVTISSPLATQIPQAVGAAYAAKRANANRVVICYFGEGAASEGDAHAGFNFAATLECPIIFFCRNNGYAISTPTSEQYRGDGIAARGPGYGIMSIRVDGNDVFAVYNATKEARRRAVAENQPFLIEAMTYRIGHHSTSDDSSAYRSVDEVNYWDKQDHPISRLRHYLLSQGWWDEEQEKAWRKQSRRKVMEAFEQAERKPKPNPNLLFSDVYQEMPAQLRKQQESLARHLQTYGEHYPLDHFDK
chain 2: VAHFTFQPDPEPREYGQTQKMNLFQSVTSALDNSLAKDPTAVIFGEDVAFGGVFRCTVGLRDKYGKDRVFNTPLCEQGIVGFGIGIAVTGATAIAEIQFADYIFPAFDQIVNEAAKYRYRSGDLFNCGSLTIRSPWGCVGHGALYHSQSPEAFFAHCPGIKVVIPRSPFQAKGLLLSCIEDKNPCIFFEPKILYRAAAEEVPIEPYNIPLSQAEVIQEGSDVTLVAWGTQVHVIREVASMAKEKLGVSCEVIDLRTIIPWDVDTICKSVIKTGRLLISHEAPLTGGFASEISSTVQEECFLNLEAPISRVCGYDTPFPHIFEPFYIPDKWKCYDALRKMINY
Molecule B1 has a Km ([4]; with KIC as substrate) of 24.0 ± 2.0 µM, a kcat ([4]; with KIC as substrate) of 0.337 ± 0.025 s⁻¹ and a Km ([4]; with KIV as substrate) of 22.0 ± 2.0 µM. For the same molecule, the kcat ([4]; with KIV as substrate) was 0.417 ± 0.0333 s⁻¹ and the Km ([4]; with KMV as substrate) was 21.0 ± 3.0 µM.

B2: BCKDC (Homo sapiens) (protein)
chain 1: SSLDDKPQFPGASAEFIDKLEFIQPNVISGIPIYRVMDRQGQIINPSEDPHLPKEKVLKLYKSMTLLNTMDRILYESQRQGRISFYMTNYGEEGTHVGSAAALDNTDLVFGQYREAGVLMYRDYPLELFMAQCYGNISDLGKGRQMPVHYGCKERHFVTISSPLATQIPQAVGAAYAAKRANANRVVICYFGEGAASEGDAHAGFNFAATLECPIIFFCRNNGYAISTPTSEQYRGDGIAARGPGYGIMSIRVDGNDVFAVYNATKEARRRAVAENQPFLIEAMTYRIGHHSTSDDSSAYRSVDEVNYWDKQDHPISRLRHYLLSQGWWDEEQEKAWRKQSRRKVMEAFEQAERKPKPNPNLLFSDVYQEMPAQLRKQQESLARHLQTYGEHYPLDHFDK
chain 2: VAHFTFQPDPEPREYGQTQKMNLFQSVTSALDNSLAKDPTAVIFGEDVAFGGVFRCTVGLRDKYGKDRVFNTPLCEQGIVGFGIGIAVTGATAIAEIQFADYIFPAFDQIVNEAAKYRYRSGDLFNCGSLTIRSPWGCVGHGALYHSQSPEAFFAHCPGIKVVIPRSPFQAKGLLLSCIEDKNPCIFFEPKILYRAAAEEVPIEPYNIPLSQAEVIQEGSDVTLVAWGTQVHVIREVASMAKEKLGVSCEVIDLRTIIPWDVDTICKSVIKTGRLLISHEAPLTGGFASEISSTVQEECFLNLEAPISRVCGYDTPFPHIFEPFYIPDKWKCYDALRKMINY
B2 gave a Km ([5]; substrate α-keto-β-methylvalerate (KMV)) of 50.0 ± 3.0 µM, a Km [5, 6] of 41.0 ± 5.0 µM and a kcat [5, 6] of 4.25 ± 0.167 s⁻¹. For the same molecule, the Km [5, 7] was 40.0 ± 5.0 µM and the kcat [5, 7] was 5.15 ± 0.25 s⁻¹.
